Laboratory results published in ChEMBL document CHEMBL1201862, “PubChem BioAssay data set” (2004).
Calls of active or inactive are those of the source.

Legend:
Cytochrome P450 2C19 = Cytochrome P450 2C19 (Homo sapiens, UniProt P33261); test: Cytochrome panel assay with activity outcomes. Panel member name: p450-cyp2c19 Compounds with AC50 equal or less than 10 uM are considered active; format: functional; details: read-out: AC50
[1] = Trypanosoma cruzi growth suppression in host cells – NIH3T3 host cells, beta-gal luminescence, confirmation (AID 2044); format: functional, cell-based;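 note: intracellular parasites grown in NIH/3T3 mouse fibroblasts as host cells; luminescent beta-galactosidase reporter signal from transgenic T. cruzi replicating inside host cells; inhibitors lower the luminescence signal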
[2] = NIH3T3 cell viability loss – ATP luminescence, mouse fibroblasts, counter-screen, dose response (AID 2010); format: functional, cell-based;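 note: cells exposed to compound for about 90 hours before reading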
[3] = test system: Streptococcus sp. 'group A'; test: Streptococcus pyogenes SK(-)GAS viability under kanamycin – luminescence, BacTiterGlo, confirmation, counter-screen for streptokinase expression inhibitor project, dose response (AID 1900); format: functional, organism-based
Streptococcus = test: GAS UMAA2166 growth inhibition – luminescence, BacTiterGlo, counter-screen for streptokinase expression inhibitor project, dose response (AID 1915); format: functional, organism-based;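 note: potency for reduction of bacterial viability or growth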

Sequence of Cytochrome P450 2C19 (P33261 whole entry): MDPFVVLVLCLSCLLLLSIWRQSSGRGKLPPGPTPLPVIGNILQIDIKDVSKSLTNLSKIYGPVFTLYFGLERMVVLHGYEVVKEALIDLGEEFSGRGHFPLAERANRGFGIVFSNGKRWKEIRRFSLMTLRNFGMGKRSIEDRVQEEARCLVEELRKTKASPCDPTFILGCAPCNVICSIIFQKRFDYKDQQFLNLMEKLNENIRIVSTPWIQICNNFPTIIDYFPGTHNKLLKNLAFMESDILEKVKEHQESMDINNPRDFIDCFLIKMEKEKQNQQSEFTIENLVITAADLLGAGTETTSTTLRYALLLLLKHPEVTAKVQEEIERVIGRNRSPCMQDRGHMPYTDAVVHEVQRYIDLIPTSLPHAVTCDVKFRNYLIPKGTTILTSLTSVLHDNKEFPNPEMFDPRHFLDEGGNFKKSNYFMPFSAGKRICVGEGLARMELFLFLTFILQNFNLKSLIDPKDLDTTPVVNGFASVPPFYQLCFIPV

## COC(=O)c1sccc1NC(=O)c1cc(-c2ccc(C)cc2C)nc2ccccc12
Cytochrome P450 2C19
  AC50: 3.55 µM (inconclusive)

## COc1ccc(SCCc2ccncc2)cc1
[1]
  EC50: 1.1 µM (active)
[2]
  EC50: > 60 µM (not active)

## Cc1cccc2c1NC(C)CC2C (stereo not given)
[1]
  EC50: 4.83 µM (active)
[2]
  EC50: > 30 µM (not active)

## CN1CCC(N(C)S(=O)(=O)c2ccc(C(C)(C)C)cc2)CC1
[1]
  EC50: 0.249 µM (active)
[2]
  EC50: 35.5 µM (active)

## CCCN(CCC)S(=O)(=O)c1ccc(C(=O)Nc2nnc(COC)o2)cc1
[3]
  EC50: 5.99 µM (active)
Streptococcus
  EC50: 4.59 µM (active)

## COc1ccc(C(C(=O)NC2CCCC2)N(C(=O)c2snc(-c3ccc(F)cc3)c2N)c2ccc(OC)cc2)cc1 (stereo not given)
[1]
  EC50: 1.59 µM (active)
[2]
  EC50: > 60 µM (not active)

## COc1ccc(C(=N)NOC(=O)c2ccc3c(c2)OCO3)cc1OC
[1]
  EC50: 2.5 µM (active)
[2]
  EC50: 27 µM (active)

## CC(Nc1nc(-c2ccncc2)nc2ccccc12)c1ccccc1 (stereo not given)
[1]
  EC50: 0.596 µM (active)
[2]
  EC50: 4.4 µM (active)

## Cc1c(Cl)cccc1N=C(S)N(Cc1cccnc1)Cc1ccccc1Cl
[1]
  EC50: 0.516 µM (active)
[2]
  EC50: > 60 µM (not active)

## COC(=O)C1=C(Nc2ccc(C)cc2)C=C(C)C(C(=O)OC)C1c1cccc(OC)c1 (stereo not given)
[1]
  EC50: 2.26 µM (active)
[2]
  EC50: 6.59 µM (active)

## O=C(NCCCN1CCOCC1)c1ccc([N+](=O)[O-])cc1[N+](=O)[O-]
[1]
  EC50: 0.582 µM (active)
[2]
  EC50: > 30 µM (not active)

## O=c1c(-c2ccccc2)nc2cnc(N3CCNCC3)nc2n1C1CC1
Cytochrome P450 2C19
  AC50: 39.8 µM (inconclusive)

## CCC1CCCCN1S(=O)(=O)c1ccc(C(=O)Nc2nnc(C3CC3)o2)cc1 (stereo not given)
[3]
  EC50: 4.34 µM (active)
Streptococcus
  EC50: 7.56 µM (active)

## CC(=O)O[C@@]12CO[C@@H]1C[C@H](O)[C@@]1(C)C(=O)[C@H](O)C3=C(C)[C@@H](OC(=O)[C@H](O)[C@@H](NC(=O)OC(C)(C)C)c4ccccc4)C[C@](O)([C@@H](OC(=O)c4ccccc4)[C@H]21)C3(C)C
[1]
  EC50: < 0.1 µM (active)

## O=C(Nc1cccc(-c2nc3ncccc3o2)c1)c1ccco1
[1]
  EC50: 0.249 µM (active)
[2]
  EC50: > 60 µM (not active)

## Cc1ccc(OCC(O)CNCc2ccc(F)cc2)cc1 (stereo not given)
[1]
  EC50: 0.321 µM (active)
[2]
  EC50: > 60 µM (not active)

## Cc1noc(C)c1-c1cc(Nc2ccccc2)ncn1
Cytochrome P450 2C19
  AC50: 20 µM (inconclusive)

## N#Cc1cccc(-c2nc(NCCN3CCOCC3)c3ccccc3n2)c1
Cytochrome P450 2C19
  AC50: 15.8 µM (inconclusive)

## COc1cc2c(c(O)c1OC)C(=O)C(OC)CCC2 (stereo not given)
Cytochrome P450 2C19
  AC50: 6.31 µM (inconclusive)

## COc1ccccc1N(CC(=O)N/N=C(\C)c1ccccc1O)S(=O)(=O)c1ccc(C)cc1
[1]
  EC50: 4.7 µM (active)
[2]
  EC50: 5.18 µM (active)

## CN1CCN(/N=C/c2cccc(Cl)c2Cl)CC1
[1]
  EC50: 0.321 µM (active)
[2]
  EC50: > 60 µM (not active)

## O=C(Cc1cccs1)N/N=C/c1ccco1
[3]
  EC50: 2.88 µM (active)
Streptococcus
  EC50: 2.18 µM (active)

## C[C@H]1[C@H](C)CC[C@]2(C(=O)O)CC[C@]3(C)C(=CC[C@@H]4[C@@]5(C)C[C@@H](O)[C@H](O)C(C)(C)[C@@H]5CC[C@]43C)[C@H]12 [COROSOLIC ACID]
[3]
  EC50: 2.92 µM (active)
Streptococcus
  EC50: 2.79 µM (active)
